# Patent US20210186930A1, “Methods of Treating Renal Disease Associated With Chronic Kidney Disease Such as Alport Syndrome” (UNIVERSITY OF MIAMI, priority 2018, published 2021)
# Entries after “also recorded” stand apart in the source; their conditions may differ.
# What was measured:
# Col4a3−/− mice [1] = assay: Renal function in Col4a3-/- mice treated with ezetimibe, ramipril or both (Example 1, FIG. 5); format: in vivo, mouse; details: vs untreated Col4a3−/−
# Excerpt: Albumin/creatinine ratio: All albuminuria values are expressed as μg albumin/mg creatinine. Albumin/creatinine determined by ELISA (Bethyl Laboratories) for albumin detection and a biochemical assay based on the Jaffe method for creatinine detection (Stanbio) as previously described. Serology: Immediately prior to sacrifice, a blood sample was collected for the determination of BUN and lipid panel analysis in the comparative laboratory core facility of the University of Miami. Serum creatinine was determined by tandem mass spectrometry (UAB-UCSD O'Brien Core Center, University of Alabama). The following experiment was performed to investigate which treatment, ezetimibe (EZ), ramipril (Ramp) or the combination of both drugs (EZ+Ramp), would best preserve renal function in Col4a3 knockout mice, all drugs were administered to 4-week-old Col4a3−/− mice for 4 weeks as follows: ezetimibe (Ez) was orally administered at a concentration of 5 mg/kg BW, ramipril was added to the drinking water at a concentration that would lead to a daily ramipril uptake of 10 mg/kg BW. All mice were sacrificed at 8 weeks of age. The following four groups of mice were analyzed: Col4a3^+/+, Col4a3^−/−+Ez, Col4a3^−/−+Ramp and Col4a3^−/−+Ez+Ramp.
# Col4a3−/− mice [2] = assay: Renal cortex lipid content in Col4a3-/- mice (Example 4, FIG. 7); format: in vivo, mouse; details: for triglyceride (TG) content in kidney cortexes: treated vs untreated Col4a3−/− mice, ezetimibe 5 mg/kg, ramipril 10 mg/kg, 4 weeks
# Protocol: Determination of cholesterol content in kidney cortex: Tissue from kidney cortexes was homogenized in hypotonic buffer (10 mM HEPES pH7.0, 15 mM KCl, 1 mM MgCl2, 10 mM phosphatase inhibitors). Lipids from 100 μl of the homogenate were extracted with 1 ml of hexane:isopropanol (3:2, v/v), dried and reconstituted in 100 μl of isopropanol-NP40 (9:1, v/v). Tissue fractions not soluble in the organic solvent, were further dried, reconstituted in 8 M urea, and assayed for protein concentration using Pierce BCA protein assay kit (ThermoFisher Scientific, MA, USA). Total cholesterol from lipid extracts was determined by the enzymatic method as previously described (Robinet, P., Wang, Z., Hazen, S. L. & Smith, J. D. A simple and sensitive enzymatic method for cholesterol quantification in macrophages and foam cells. Journal of lipid research 51, 3364-3369, 2010). Briefly, endogenous peroxides present were eliminated by incubating samples and standards with catalase (Sigma-Aldrich, MO, USA), 45 U/ml final concentration, for 15 min at 37° C. […] The plates were incubated at 37° C. for 30 min and fluorescence was read at 530 nm (Ex) and 580 nm (Em) in a plate reader (SpectraMax M5, Molecular Devices, CA, USA). Cholesteryl esters (CE) quantification was based on the method described from Toshimi M, et al. Briefly, 25 μl of samples was mixed with 150 μl of free cholesterol decomposition reagent (45 U/ml catalase, 1 U/ml cholesterol oxidase) and incubated 2-4 h at 37° C., and then the final volume was brought up to 250 μl prior to determining free and total cholesterol remaining. Total cholesterol remaining was determined by mixing 50 μl of end product reaction with 50 μl of reagent A, as described above. Free cholesterol remaining was determined similarly, but without including cholesterol esterase in the reagent. CE was calculated by the formula CE=(TC−FC)×DF, where TC is the total cholesterol remaining, FC the free cholesterol remaining and DF the dilution factor, in this case, 10. Lipid content: Oil Red 0 staining was performed on frozen tissue sections and triglyceride content was determined on snap frozen kidney tissue as described above. The following experiment was performed to investigate which treatment, ezetimibe (EZ), ramipril (Ramp) or the combination of both drugs (EZ+Ramp), would best preserve renal function in Col4a3 knockout mice, all drugs were administered to 4-week-old Col4a3−/− mice for 4 weeks as follows: ezetimibe (Ez) was orally administered at a concentration of 5 mg/kg BW, ramipril was added to the drinking water at a concentration that would lead to a daily ramipril uptake of 10 mg/kg BW. All mice were sacrificed at 8 weeks of age. The following four groups of mice were analyzed: Col4a3^+/+, Col4a3^−/−+Ez, Col4a3^−/−+Ramp and Col4a3^−/−+Ez+Ramp.
# [3] = cited from earlier work
# Col4a3−/− mice [4] = assay: Mesangial expansion (PAS) and renal fibrosis (Picrosirius Red) in Col4a3-/- mice (Example 3, FIG. 6); format: in vivo, mouse; details: treated vs untreated Col4a3−/− mice; ezetimibe 5 mg/kg, ramipril 10 mg/kg, 4 weeks
# Protocol: Assessment of mesangial expansion: Periodic acid-Schiff (PAS) staining of 4 μm-thick tissue sections was performed using a standard protocol. Twenty glomeruli per section were analyzed for mesangial expansion by semi quantitative analysis (scale 0-4) performed by two blinded independent investigators.
# Picrosirius red staining: Paraffin-embedded sections (4 μm thick) were deparaffinized with xylene and a graded alcohol series. Sections were rinsed for 5 min in distilled water, stained for 1 hour with picrosirius red in saturated aqueous picric acid, examined under a light microscope and photomicrographs were taken. Histological images were visualized using a light microscope (Olympus BX 41, Tokyo, Japan) at 40× magnification and analyzed using Image J software.
# The following experiment was performed to investigate which treatment, ezetimibe (EZ), ramipril (Ramp) or the combination of both drugs (EZ+Ramp), would best preserve renal function in Col4a3 knockout mice, all drugs were administered to 4-week-old Col4a3−/− mice for 4 weeks as follows: ezetimibe (Ez) was orally administered at a concentration of 5 mg/kg BW, ramipril was added to the drinking water at a concentration that would lead to a daily ramipril uptake of 10 mg/kg BW. All mice were sacrificed at 8 weeks of age. The following four groups of mice were analyzed: Col4a3^+/+, Col4a3^−/−+Ez, Col4a3^−/−+Ramp and Col4a3^−/−+Ez+Ramp.
# PAS staining was performed to detect and quantify mesangial expansion, Picrossirius Red staining to detect and quantify renal fibrosis in treated compared to untreated Col4a3^−/− mice. […] Representative images for PAS staining are shown in FIG. 6A and of Picrosirius Red staining to detect fibrosis in […]. Bar graph quantifications for both are shown in FIGS. 6C and 6D, respectively.
# [5] = Col4a3−/− mice treated 4 weeks, ezetimibe 5 mg/kg, ramipril 10 mg/kg
smiles,measurement,setting,value
O=C1[C@H](CC[C@H](O)c2ccc(F)cc2)[C@@H](c2ccc(O)cc2)N1c1ccc(F)cc1 [ezetimibe],albumin/creatinine ratio (ACR),"Col4a3−/− mice [1]; 4-week-old Col4a3−/− mice treated 4 weeks, ezetimibe 5 mg/kg BW oral, ramipril 10 mg/kg BW in drinking water",significant reduction in the albumin/creatinine ratio; also recorded: significant decrease in the albumin/creatinine ratio
same,serum BUN levels,Col4a3−/− mice [1]; [5],significant reduction in the serum BUN levels
same,serum creatinine levels,Col4a3−/− mice [1]; [5],significant reduction in the serum creatinine levels
same,total cholesterol content (kidney cortexes),Col4a3−/− mice [2]; ezetimibe only treated Col4a3−/− mice,no effect on the total cholesterol content
same,triglyceride (TG) content in kidney cortexes,Col4a3−/− mice [2],significantly decreased
same,triglyceride (TG) content in kidney cortexes,Col4a3−/− mice [2]; listed as ezetemibe,significantly decreased renal triglyceride content
same,"solubility in ethanol, methanol, and acetone",[3],freely to very soluble
same,solubility in water,[3],practically insoluble
same,"mesangial expansion (PAS staining, score)",Col4a3−/− mice [4],significant reduction; also recorded: significantly reduced mesangial expansion
same,renal fibrosis (Picrosirius Red staining),Col4a3−/− mice [4],significant reduction; also recorded: significantly reduced
